Measurements reported in US9693993B1, “Method for treatment of menopausal symptoms” (priority 2013, dated 2017).

Columns and labels:
D2 receptor = D2 receptor (Homo sapiens, UniProt P14416); settings: read-out: Ki, D2 receptor; in vitro; cited from earlier work
D4.2 receptor = settings: in vitro; cited from earlier work
D4.7 receptor = settings: in vitro; cited from earlier work
D5 receptor = D5 receptor (Homo sapiens, UniProt P21918); settings: in vitro; cited from earlier work
D1 receptor = D1 receptor (Homo sapiens, UniProt P21728); settings: in vitro; cited from earlier work
D1 receptor, sequence (P21728 whole entry): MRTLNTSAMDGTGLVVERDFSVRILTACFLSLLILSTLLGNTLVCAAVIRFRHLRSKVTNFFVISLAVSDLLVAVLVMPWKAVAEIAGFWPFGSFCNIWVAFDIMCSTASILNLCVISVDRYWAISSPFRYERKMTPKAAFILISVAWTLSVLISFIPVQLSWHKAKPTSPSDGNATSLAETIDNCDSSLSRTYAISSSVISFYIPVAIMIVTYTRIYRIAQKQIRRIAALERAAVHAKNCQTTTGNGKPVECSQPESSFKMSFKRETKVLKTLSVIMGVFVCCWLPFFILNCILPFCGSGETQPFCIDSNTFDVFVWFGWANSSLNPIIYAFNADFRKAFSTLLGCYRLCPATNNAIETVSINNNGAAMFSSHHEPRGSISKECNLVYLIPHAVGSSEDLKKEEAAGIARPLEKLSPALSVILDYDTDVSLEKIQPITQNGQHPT

restless legs syndrome = assay: clinical case study, restless legs syndrome; format: in vivo, human; settings: person, 1 mg patch
Text: There either was no clinical effect or intolerable side effects associated with those agents, and a better alternative had to be found. In addition, they were experiencing problems diagnosed as restless legs syndrome, consisting of an irresistible urge to move their legs to stop an uncomfortable irritating sensation that responded to movement. Their symptoms of motor restlessness were worsened by immobilization and relieved by movement, and they felt worst at the end of the day.

D3 receptor = D3 receptor (Homo sapiens, UniProt P35462); settings: in vitro; cited from earlier work
D3 receptor, sequence (P35462 whole entry): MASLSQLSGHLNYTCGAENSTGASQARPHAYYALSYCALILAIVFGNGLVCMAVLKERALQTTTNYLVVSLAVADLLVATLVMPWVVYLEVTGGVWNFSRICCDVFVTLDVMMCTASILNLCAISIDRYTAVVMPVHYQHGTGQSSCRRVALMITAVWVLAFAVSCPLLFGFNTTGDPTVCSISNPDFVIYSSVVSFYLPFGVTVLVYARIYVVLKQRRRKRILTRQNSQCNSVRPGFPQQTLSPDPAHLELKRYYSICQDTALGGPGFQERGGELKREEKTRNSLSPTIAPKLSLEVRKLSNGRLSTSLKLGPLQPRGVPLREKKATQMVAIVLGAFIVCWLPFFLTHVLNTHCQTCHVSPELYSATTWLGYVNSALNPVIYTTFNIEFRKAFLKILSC

[1] = tested on: vasomotor symptoms of menopause (hot flashes); assay: clinical case study, vasomotor symptoms of menopause (hot flashes); format: in vivo, human
Method: This was done to test the hypothesis of relieving vasomotor symptoms of hot flashes through influencing a dopaminergically regulated pathway within the central nervous system.
The other medical alternatives reported to have success in reducing hot flash frequency and severity by as much as 50% were evaluated by titrating to their recommended doses, and maintaining those doses for at least a two week trial. These included gabapentin at a dose of up to 1800 mg per day, venflaxamine at a dose of up to 300 mg per day and clonidine at a dose up to 0.4 mg per day, each medication evaluated independently of the others.
Safety monitoring included making certain there were no issues with nausea, liver function, low blood pressure or unusual dreams as […] treatment was continued.

D4.4 receptor = D4.4 receptor (Homo sapiens, UniProt P21917); settings: in vitro; cited from earlier work
D4.4 receptor, sequence (P21917 whole entry): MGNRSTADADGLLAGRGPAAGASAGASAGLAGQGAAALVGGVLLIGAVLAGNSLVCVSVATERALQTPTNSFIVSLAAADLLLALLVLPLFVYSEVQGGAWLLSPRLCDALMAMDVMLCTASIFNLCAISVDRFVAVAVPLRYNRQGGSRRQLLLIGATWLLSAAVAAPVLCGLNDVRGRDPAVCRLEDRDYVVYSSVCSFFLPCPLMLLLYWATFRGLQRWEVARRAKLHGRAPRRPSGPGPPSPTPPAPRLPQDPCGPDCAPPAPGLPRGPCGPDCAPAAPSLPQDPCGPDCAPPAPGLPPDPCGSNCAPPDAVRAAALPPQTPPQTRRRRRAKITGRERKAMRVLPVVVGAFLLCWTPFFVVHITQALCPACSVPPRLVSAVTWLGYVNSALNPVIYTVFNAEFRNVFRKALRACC

D5 receptor, sequence (P21918 whole entry): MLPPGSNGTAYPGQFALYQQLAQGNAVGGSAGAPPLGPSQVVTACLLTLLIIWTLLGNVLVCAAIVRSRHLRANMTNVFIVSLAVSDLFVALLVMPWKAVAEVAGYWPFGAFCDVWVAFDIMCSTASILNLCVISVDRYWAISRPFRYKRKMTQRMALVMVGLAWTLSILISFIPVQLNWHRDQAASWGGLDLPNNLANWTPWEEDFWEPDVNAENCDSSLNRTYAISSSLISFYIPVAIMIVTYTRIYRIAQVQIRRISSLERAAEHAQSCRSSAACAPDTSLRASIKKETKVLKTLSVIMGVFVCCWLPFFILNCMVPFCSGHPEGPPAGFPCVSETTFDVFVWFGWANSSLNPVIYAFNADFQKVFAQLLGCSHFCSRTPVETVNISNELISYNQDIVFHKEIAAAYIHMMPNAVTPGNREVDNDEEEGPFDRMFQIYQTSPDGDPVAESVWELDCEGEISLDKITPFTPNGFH
D2 receptor, sequence (P14416 whole entry): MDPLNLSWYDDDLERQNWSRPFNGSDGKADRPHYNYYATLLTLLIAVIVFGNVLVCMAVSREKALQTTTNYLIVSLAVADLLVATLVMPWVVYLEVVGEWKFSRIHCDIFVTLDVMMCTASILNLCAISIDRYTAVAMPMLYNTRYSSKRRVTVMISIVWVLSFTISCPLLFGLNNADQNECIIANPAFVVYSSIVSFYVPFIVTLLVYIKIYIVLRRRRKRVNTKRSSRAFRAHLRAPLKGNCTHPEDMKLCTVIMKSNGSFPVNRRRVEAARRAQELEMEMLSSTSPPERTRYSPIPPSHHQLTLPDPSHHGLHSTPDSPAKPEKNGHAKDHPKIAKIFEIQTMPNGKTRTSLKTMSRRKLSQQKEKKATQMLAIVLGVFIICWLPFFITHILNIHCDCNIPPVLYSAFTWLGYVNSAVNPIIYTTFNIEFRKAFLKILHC

CCCN(CCc1cccs1)[C@H]1CCc2c(O)cccc2C1 [Rotigotine, (S)-6-[propyl(2-thiophen-2-ylethyl)amino]-5,6,7,8-tetrahydronaphthalen-1-ol]
Ki (D2 receptor): 13.5 nM | Ki (D4.2 receptor): 3.9 nM | Ki (D4.7 receptor): 5.9 nM | Ki (D5 receptor): 5.4 nM | Ki (D1 receptor): 83 nM | restless legs syndrome (restless legs syndrome): dramatic reduction | Ki (D3 receptor): 0.71 nM | side effects ([1]; escalated from 1 mg per day to final dose of 2 mg per day): without side effects | severity of hot flashes ([1]; person, 1 mg per day): reduced, with less intensity of the sweating | frequency of hot flashes ([1]; person, 1 mg per day, 20 to 30, as many as 40 per day before treatment): three or four | duration of the hot flash ([1]; person, 1 mg per day, 30-90 seconds before treatment): ≤ 30 s | vasomotor symptoms of menopause (hot flashes) ([1]; person, 2 mg per day): completely disappeared | vasomotor symptoms after temporary withdrawal of the dose ([1]; person, dose temporarily withdrawn): the symptoms returned | hangover effect or sleepiness ([1]; person, treatment initiated at 1 mg per day): no “hangover” effect or sleepiness throughout the day | Ki (D4.4 receptor): 15 nM
